# Laboratory results: ChEMBL document CHEMBL1147269, “Cribrarione B, a new naphthoquinone pigment from the myxomycete Cribraria cancellata” (J Nat Prod, 2003)
# Activity calls are given as the source filed them. The calls are words filed in the database; no cut-off is given here.
# Tested on: Bacillus subtilis
# Test: Antimicrobial activity against Bacillus subtilis
# Assay type: functional, organism-based
smiles,measurement,value
CC(O)c1cc(O)c2c(c1O)C(=O)C=C(O)C2=O (stereo unspecified),Activity,inactive
